# Data: patent US20240317740A1, “NOVEL COMPOUNDS AND THEIR USE” (Debiopharm International S.A., priority 2021, published 2024)
# Experiments:
# A. baumannii FabI = A. baumannii FabI (Acinetobacter baumannii, UniProt D0CAD5); assay: Inhibition of FabI enzyme (NADH consumption rate); format: biochemical; details: recombinant FabI, 30° C., pH 7.25
# Description: Inhibition of Fabl enzyme from Acinetobacter baumannii and Escherichia coli was tested by measuring the rate of NADH consumption (Aabsorbance at 340 nm/min) at 30° C. in 96-well plate format using an automated plate reader in the presence or absence of the test compounds. The assay mixture contained 100 mM Tris-HCl, pH 7.25 (A. baumannii) or 7.5 (E. coli), 100 mM ammonium acetate, 0.02% (A. baumannii) or 0.05% (E. coli) Pluronic F-68, 25 μM crotonyl ACP, 50 μM NADH, […] recombinant Fabl protein, and 7.5% DMSO. Test compounds were added at concentrations ranging from 0.17 to 10,000 nM in a final well volume of 100 μl. This dose-response inhibitory assay was performed using a 10-point, serial dilution series for each test compound. IC50 values for each test compound were assigned from logistical sigmoid curve-fitting of the inhibition dose response curves.
# [1] = system: A. baumannii ATCC BAA1605; assay: Broth microdilution MIC assay; format: cell-based; details: Acinetobacter baumannii, ATCCBAA1605; CA-MHB, 1% DMSO, 35° C., 20 hours
# Description: (§1) The antibacterial activity of Fabl inhibitors against select Gram-negative and Gram-positive bacterial species including susceptible and multi-drug resistant A. baumannii, E. coli, K. pneumoniae and S. aureus was tested using the broth microdilution Minimal Inhibitory Concentration (MIC) assay following CLSI guidelines for insoluble compounds. Test articles were serially diluted 2-fold in 100% dimethyl sulfoxide (DMSO) and then diluted 100-fold into cation adjusted Mueller-Hinton broth (CA-MHB) to achieve a 10-point test concentration range in 1% DMSO. Final compound concentrations were 0.016-8 μg/ml for S. aureus or 0.06-32 μg/ml for the Gram-negative species. MIC test plates were then prepared by transferring 100 μl of the final assay medium (test article in CA-MHB, 1% DMSO) into the appropriate wells of a sterile, low binding 96-well polystyrene plate. Direct colony suspension inoculums of the test strains were freshly prepared per CLSI guidelines, and the appropriate test wells were inoculated to achieve a final bacterial cell density of 5×10^5 CFU/ml. Growth control (no test article) and negative control (no bacterial inoculum) wells were also included. Exposure to light was minimized during all stages of assay preparation. MIC test plates were incubated at 35° C. for 20 hours. Bacterial growth was then determined by measuring the optical density at 600 nm (OD600) using a SpectraMax Plus plate-reader spectrophotometer.
# K. pneumoniae A6030827 = assay: Broth microdilution MIC assay; format: cell-based; details: Klebsiella pneumoniae, CA-MHB, 1% DMSO, 35° C., 20 hours
# Description: as §1
# E. coli AG100 = assay: Broth microdilution MIC assay; format: cell-based; details: Escherichia coli, CA-MHB, 1% DMSO, 35° C., 20 hours
# Description: as §1
# S. aureus ATCC 29213 = assay: Broth microdilution MIC assay; format: cell-based; details: Staphylococcus aureus, ATCC29213; CA-MHB, 1% DMSO, 35° C., 20 hours
# Description: as §1
# A. baumannii FabI, sequence (D0CAD5 1-288): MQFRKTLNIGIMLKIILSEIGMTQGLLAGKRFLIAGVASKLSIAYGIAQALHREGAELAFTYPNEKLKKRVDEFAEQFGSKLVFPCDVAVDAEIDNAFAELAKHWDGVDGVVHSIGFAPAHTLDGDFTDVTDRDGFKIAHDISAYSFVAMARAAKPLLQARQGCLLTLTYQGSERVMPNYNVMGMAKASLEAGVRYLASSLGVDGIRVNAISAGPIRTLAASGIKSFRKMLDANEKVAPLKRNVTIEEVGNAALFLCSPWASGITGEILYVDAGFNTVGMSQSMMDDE
SMILES,IC50 (A. baumannii FabI) [nM],MIC [1] [µg/mL],MIC (K. pneumoniae A6030827) [µg/mL],MIC (E. coli AG100) [µg/mL],MIC (S. aureus ATCC 29213) [µg/mL]
"Cc1oc2ccccc2c1CN(C)C(=O)/C=C/c1cnc2c(c1)CCC(N(C)C)C(=O)N2 (centres unmarked) [Compound 13, (E)-3-[7-(dimethylamino)-8-oxo-5,6,7,9-tetrahydropyrido[2,3-b]azepin-3-yl]-N-methyl-N-[(2-methylbenzofuran-3-yl)methyl]prop-2-enamide]",< 10,≤ 4,8,16,≤ 4
"Cc1oc2ccccc2c1CN(C)C(=O)/C=C/c1cnc2c(c1)N[C@H](C)[C@H](N)C(=O)N2 [Compound 23, (E)-3-((2R,3S)-3-amino-2-methyl-4-oxo-2,3,4,5-tetrahydro-1H-pyrido[2,3-b][1,4]diazepin-8-yl)-N-methyl-N-((2-methylbenzofuran-3-yl)methyl)acrylamide]",< 10,≤ 4,8,8,≤ 4
"Cc1oc2ccccc2c1CN(C)C(=O)/C=C/c1cnc2c(c1)CCC(N1CCCC1)C(=O)N2 (centres unmarked) [Compound 15, (E)-N-methyl-N-[(2-methylbenzofuran-3-yl)methyl]-3-(8-oxo-7-pyrrolidin-1-yl-5,6,7,9-tetrahydropyrido[2,3-b]azepin-3-yl)prop-2-enamide]",< 10,≤ 4,16,16,≤ 4
"CNC1CCc2cc(/C=C/C(=O)N(C)Cc3c(C)oc4ccccc34)cnc2NC1=O (centres unmarked) [Compound 11, (E)-N-methyl-3-(7-(methylamino)-8-oxo-6,7,8,9-tetrahydro-5H-pyrido[2,3-b]azepin-3-yl)-N-((2-methylbenzofuran-3-yl)methyl)acrylamide]",< 10,8,8,8,≤ 4

# The remaining lines, values ahead:
IC50 (A. baumannii FabI) [nM],MIC [1] [µg/mL],MIC (K. pneumoniae A6030827) [µg/mL],MIC (E. coli AG100) [µg/mL],MIC (S. aureus ATCC 29213) [µg/mL],SMILES
< 10,≤ 4,–,8,≤ 4,"Cc1oc2ccccc2c1CN(C)C(=O)/C=C/c1cnc2c(c1)CCC(N1CCCC1)C(=O)N2 (single isomer, unassigned) [Compound 25, (S*,E)-N-methyl-N-((2-methylbenzofuran-3-yl)methyl)-3-(8-oxo-7-(pyrrolidin-1-yl)-6,7,8,9-tetrahydro-5H-pyrido[2,3-b]azepin-3-yl)acrylamide]"
< 10,≤ 4,–,≤ 4,≤ 4,"Cc1oc2ccccc2c1CN(C)C(=O)/C=C/c1cnc2c(c1)CCC(C)(N)C(=O)N2 (single isomer, unassigned) [Compound 39, (S*,E)-3-(7-amino-7-methyl-8-oxo-6,7,8,9-tetrahydro-5H-pyrido[2,3-b]azepin-3-yl)-N-methyl-N-((2-methylbenzofuran-3-yl)methyl)acrylamide]"
< 10,–,–,–,–,"Cc1oc2ccccc2c1CN(C)C(=O)/C=C/c1cnc2c(c1)CCC(N1CC[C@@H](O)C1)C(=O)N2 (single isomer, unassigned) [Compound 28, (E)-3-((R*)-7-((R)-3-hydroxypyrrolidin-1-yl)-8-oxo-6,7,8,9-tetrahydro-5H-pyrido[2,3-b]azepin-3-yl)-N-methyl-N-((2-methylbenzofuran-3-yl)methyl)acrylamide]"
–,≤ 4,–,8,≤ 4,"Cc1oc2ccccc2c1CN(C)C(=O)/C=C/c1cnc2c(c1)CCC(N1CC[C@@H](O)C1)C(=O)N2 (stereo in doubt) [Compound 28, (E)-3-((R*)-7-((R)-3-hydroxypyrrolidin-1-yl)-8-oxo-6,7,8,9-tetrahydro-5H-pyrido[2,3-b]azepin-3-yl)-N-methyl-N-((2-methylbenzofuran-3-yl)methyl)acrylamide]"
